Data as given in US20240325359A1, “ACAT1 INHIBITOR AND METHOD OF USE IN THE TREATMENT OF DISEASE” (Trustees of Dartmouth College, priority 2023, published 2024).
pEC50: −log10 of the molar value.

Assays:
human ACAT1 = target: T1, human ACAT1 (Homo sapiens, UniProt P35610); test: Cholesteryl [3H]-oleate formation in CHO cells stably expressing human ACAT1
T1 sequence (P35610 1-550): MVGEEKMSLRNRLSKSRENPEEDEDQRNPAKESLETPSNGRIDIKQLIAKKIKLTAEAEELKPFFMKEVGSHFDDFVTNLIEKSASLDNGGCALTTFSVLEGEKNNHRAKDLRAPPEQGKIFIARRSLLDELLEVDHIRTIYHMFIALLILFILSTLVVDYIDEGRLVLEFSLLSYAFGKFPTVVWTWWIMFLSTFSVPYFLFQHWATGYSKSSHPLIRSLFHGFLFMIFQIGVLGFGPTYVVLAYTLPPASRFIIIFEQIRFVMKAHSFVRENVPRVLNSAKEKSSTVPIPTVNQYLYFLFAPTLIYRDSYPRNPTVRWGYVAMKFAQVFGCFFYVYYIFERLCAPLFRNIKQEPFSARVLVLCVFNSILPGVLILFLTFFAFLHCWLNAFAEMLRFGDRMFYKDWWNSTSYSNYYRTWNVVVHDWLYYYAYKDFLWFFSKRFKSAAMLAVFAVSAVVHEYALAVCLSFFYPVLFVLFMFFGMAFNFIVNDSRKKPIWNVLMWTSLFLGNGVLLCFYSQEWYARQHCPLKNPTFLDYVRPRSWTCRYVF
Procedure: (§1) Cells were placed in 10% serum for two days at 37° C. and further incubated with various concentrations of F24 as a stock solution in DMSO for 2 hours. Subsequently, a complex of [3H]-oleic acid and BSA (serving as precursor of oleyl CoA as substrate of ACAT) was fed to the cells for 2 hours. Cells were extensively washed and cellular lipids were extracted with organic solvents. Radioactivity of cholesteryl [3H]-oleate was separated by thin-layer chromatography and determined by scintillation counting.

human ACAT2 = target: T2, human ACAT2 (Homo sapiens, UniProt O75908); test: Cholesteryl [3H]-oleate formation in CHO cells stably expressing human ACAT2
T2 sequence (O75908 1-522): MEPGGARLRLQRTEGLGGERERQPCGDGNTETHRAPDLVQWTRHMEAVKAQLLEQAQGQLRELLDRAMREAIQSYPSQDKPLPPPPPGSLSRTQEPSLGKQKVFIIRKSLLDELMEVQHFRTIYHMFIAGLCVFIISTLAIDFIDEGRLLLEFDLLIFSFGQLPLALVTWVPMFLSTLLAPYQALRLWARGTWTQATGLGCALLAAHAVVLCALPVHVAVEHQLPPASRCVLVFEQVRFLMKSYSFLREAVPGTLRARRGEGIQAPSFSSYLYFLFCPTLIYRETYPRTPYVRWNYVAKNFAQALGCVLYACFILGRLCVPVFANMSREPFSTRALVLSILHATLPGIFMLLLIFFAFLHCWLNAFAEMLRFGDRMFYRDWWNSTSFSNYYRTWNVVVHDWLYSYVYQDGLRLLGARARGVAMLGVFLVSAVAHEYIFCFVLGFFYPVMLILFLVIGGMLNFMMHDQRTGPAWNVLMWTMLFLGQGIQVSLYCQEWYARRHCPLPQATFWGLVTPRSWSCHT
Procedure: as §1

[1] = test system: ACAT activity in the brain; test: ACAT inhibition in mouse tissues after single IV of stealth nanoparticles; assay type: in vivo, mice
Procedure: Shown is the efficacy of F12511 vs. F24 encapsulated in nanoparticle and IV delivered to mice. Four hours after IV, various tissues were isolated to monitor ACAT inhibition measurement. Mice were perfused before brains were isolated. N=2-3 WT mice/group. Statistical analysis, 2-way ANOVA. **P<0.01; ***P<0.001.
Nanoparticle Formation. Nanoparticles were prepared according to a general method (Gülçür, et al. (2013) Drug Deliv. Transl. Res. 3(6):562-574; Jhaveri & Torchilin (2014) Front. Pharmacol. 5:77) with modifications. Using a clean glass tube (9 mL capacity), 60 mg of DSPE-PEG2000 (Laysan Bio, Inc (mPEG-DSPE, MW 2,000)) was dissolved in 500 μL of ethanol (EtOH) for a working concentration of 60 mM. […]
Nanoparticle Analysis. […] The content of compound was determined by extrapolation from a standard curve of a concentration gradient of the respective compound produced in the same TLC plate. The plate was stained with iodine and quantified using ImageJ. The TLC/iodine stain method detected compound, and DSPE-PEG2000/PC separately, thus allowing for encapsulation efficiency determination.
Delivery of F24 in Mice via Nanoparticles. […] Four hours after IV delivery, different tissues were isolated and the percent of ACAT inhibition was assessed.

SMILES | pEC50 (human ACAT1) | fold more potent than F12511 in inhibiting ACAT1 (human ACAT1; ratio of EC50 values, 6 nM vs. 39 nM) | pEC50 (human ACAT2) | fold more potent than F12511 in inhibiting human ACAT2 (human ACAT2; ratio of EC50 values, 11 nM vs. 55 nM) | ACAT inhibition ([1]; adult C57BL/6 mice, single IV of nanoparticle F24 at low dose 0.9 mM, four hours after IV, brain) [%] | brain permeability ([1]; mice, delivered IV via stealth nanoparticle)
CCCCCCCCCCCCSC(C(=O)Nc1c(SC)cc(C)nc1SC)c1ccccc1 (stereo not shown) [F24] | 8.22 | seven-fold | 7.96 | five-fold | 70 | brain-permeable
CCCCCCCCCCCCS[C@H](C(=O)Nc1cc(C)c(O)c(C)c1C)c1ccccc1 [F12511, reference compound] | – | – | 7.26 | – | – | –
